Results as given in the Kinase Knowledgebase extract (Sharma et al. 2016).

molecular target: MAPK14 (human) (UniProt Q16539); experiment: Inhibition of MAPK14 Kinase Activity
Sequence (Q16539 whole entry, looked up): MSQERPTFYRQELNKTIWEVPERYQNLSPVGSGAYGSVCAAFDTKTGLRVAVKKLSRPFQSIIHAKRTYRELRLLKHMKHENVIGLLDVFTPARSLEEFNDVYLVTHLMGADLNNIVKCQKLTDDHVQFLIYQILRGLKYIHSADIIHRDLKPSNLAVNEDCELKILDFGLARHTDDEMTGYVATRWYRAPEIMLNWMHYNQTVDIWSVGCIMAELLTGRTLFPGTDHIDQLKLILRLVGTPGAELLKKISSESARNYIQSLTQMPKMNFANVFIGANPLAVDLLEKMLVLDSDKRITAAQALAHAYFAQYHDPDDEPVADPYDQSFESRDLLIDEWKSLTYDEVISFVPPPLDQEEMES

IC50, < 10 µM:
CCC(CC)n1c(=O)ccc2c(-c3ccccc3Cl)nc(NC3CCN(C)CC3)nc21
Cc1cc(F)ccc1-c1nc(NCCNC(=O)NC2CCCCC2)nc2c1ccc(=O)n2-c1c(F)cccc1F
CS(=O)(=O)Nc1nc(-c2ccccc2)c2ccc(=O)n(-c3ccccc3)c2n1
Cc1cc(F)ccc1-c1nc(NC(CO)CO)nc2c1ccc(=O)n2-c1c(F)cccc1F
Cc1cc(F)ccc1-c1nc(NCCO)nc2c1ccc(=O)n2-c1ccccc1F
CCC(CC)n1c(=O)ccc2c(-c3ccccc3Cl)nc(N[C@H](C)CO)nc21
Cc1cc(F)ccc1-c1nc(NC[C@H](C)O)nc2c1ccc(=O)n2C1CCCCC1
CCOc1nc(-c2ccc(F)cc2C)c2ccc(=O)n(C3CCCCC3)c2n1
O=c1ccc2c(-c3ccccc3Cl)nc(NCCO)nc2n1-c1ccccc1Cl
CCC(=O)NCCNc1nc(-c2ccc(F)cc2C)c2ccc(=O)n(-c3c(F)cccc3F)c2n1
Cc1cc(F)ccc1-c1nc(OCCN(C)S(C)(=O)=O)nc2c1ccc(=O)n2-c1c(F)cccc1F
CCC(CC)n1c(=O)ccc2c(-c3ccc(F)cc3C)nc(OC)nc21
Cc1cc(F)ccc1-c1nc(NC[C@H](C)O)nc2c1ccc(=O)n2-c1ccccc1C
Cc1cc(F)ccc1-c1nc(NCCc2nnn[nH]2)nc2c1ccc(=O)n2-c1c(F)cccc1F
Cc1cc(F)ccc1-c1nc(NC[C@H](O)c2ccccc2)nc2c1ccc(=O)n2-c1c(F)cccc1F
Cc1cc(F)ccc1-c1nc(N[C@H]2CC[C@H](O)CC2)nc2c1ccc(=O)n2-c1c(F)cccc1F
COCCNc1nc(-c2ccc(F)cc2C)c2ccc(=O)n(-c3c(F)cccc3F)c2n1
Cc1cc(F)ccc1-c1nc(OCCCS(C)(=O)=O)nc2c1ccc(=O)n2-c1c(F)cccc1F
CSc1nc(-c2ccccc2F)c2ccc(=O)n(-c3ccccc3F)c2n1
Cc1cc(F)ccc1-c1nc(NCC(F)(F)F)nc2c1ccc(=O)n2-c1c(F)cccc1F
Cc1cc(F)ccc1-c1nc(N[C@@H]2CCC[C@@H]2C(N)=O)nc2c1ccc(=O)n2-c1c(F)cccc1F
Cc1cc(F)ccc1-c1nc(NC(C)(CO)CO)nc2c1ccc(=O)n2-c1ccccc1C
CCNc1nc(-c2ccc(F)cc2C)c2ccc(=O)n(-c3c(F)cccc3F)c2n1
Cc1cc(F)ccc1-c1nc(Nc2ccnc(=O)[nH]2)nc2c1ccc(=O)n2-c1c(F)cccc1F
CCN(CC)CCNc1nc(-c2ccccc2F)c2ccc(=O)n(-c3ccccc3Cl)c2n1
Cc1cc(F)ccc1-c1nc(NC(CO)CO)nc2c1ccc(=O)n2-c1c(C)cccc1C
O=C(O)CNc1nc(-c2ccccc2Cl)c2ccc(=O)n(-c3ccccc3Cl)c2n1
CSc1nc(Cl)c(C=O)c(NC2CCCCC2)n1
Cc1cc(F)ccc1-c1nc(NCCCN2CCCC2=O)nc2c1ccc(=O)n2-c1c(F)cccc1F
Cc1cc(F)ccc1-c1nc(NCC(F)(F)F)nc2c1ccc(=O)n2-c1ccccc1F
Cc1cc(F)ccc1-c1nc(NCCO)nc2c1ccc(=O)n2-c1ccccc1C
Cc1cc(F)ccc1-c1nc(NCc2nnn[nH]2)nc2c1ccc(=O)n2-c1c(F)cccc1F
COc1nc(-c2ccccc2F)c2ccc(=O)n(-c3ccccc3Cl)c2n1
CCOC(=O)CNc1nc(-c2ccccc2Cl)c2ccc(=O)n(-c3ccccc3Cl)c2n1
Cc1cc(F)ccc1-c1nc(NCC(C)(C)C)nc2c1ccc(=O)n2-c1ccccc1F
Cc1cc(F)ccc1-c1nc(N[C@@H](C)CO)nc2c1ccc(=O)n2-c1ccccc1F
COCCNC(=O)CNc1nc(-c2ccc(F)cc2C)c2ccc(=O)n(-c3c(F)cccc3F)c2n1
O=c1ccc2c(-c3ccccc3Cl)nc(NC3CCNCC3)nc2n1-c1ccccc1Cl
CS(=O)(=O)Nc1nc(-c2ccccc2F)c2ccc(=O)n(-c3ccccc3F)c2n1
Cc1cc(F)ccc1-c1nc(NC(C)(C)CO)nc2c1ccc(=O)n2-c1ccccc1C
CSc1nc(-c2ccccc2F)c2ccc(=O)n(C(C)C)c2n1
Cc1cc(F)ccc1-c1nc(NCCNC(=O)Nc2ccccc2)nc2c1ccc(=O)n2-c1c(F)cccc1F
CSc1nc(-c2ccc(F)cc2C)c2ccc(=O)n(-c3ccccc3C)c2n1
Cc1cc(F)ccc1-c1nc(OCCN)nc2c1ccc(=O)n2-c1c(F)cccc1F
O=c1ccc2c(-c3ccccc3Cl)nc(NC(CO)CO)nc2n1-c1ccccc1Cl
Cc1cc(F)ccc1-c1nc(NCCNC(=O)CN)nc2c1ccc(=O)n2-c1c(F)cccc1F
Cc1cc(F)ccc1-c1nc(NCC(C)(C)O)nc2c1ccc(=O)n2C1CCCCC1
Cc1cc(F)ccc1-c1nc(OCC(CO)CO)nc2c1ccc(=O)n2-c1c(F)cccc1F
Cc1cc(F)ccc1-c1nc(NC(CO)CO)nc2c1ccc(=O)n2-c1ccccc1C
Cc1cc(F)ccc1-c1nc(NCCO)nc2c1ccc(=O)n2-c1c(F)cccc1F
Cc1cc(F)ccc1-c1nc(NC2CCCCC2)nc2c1ccc(=O)n2-c1c(F)cccc1F
CSc1nc(-c2ccccc2F)c2ccc(=O)[nH]c2n1
Cc1cc(F)ccc1-c1nc(NCCNC(=O)C(C)(C)C)nc2c1ccc(=O)n2-c1c(F)cccc1F
CSc1nc(-c2ccccc2F)c2ccc(=O)n(C)c2n1
CSc1nc(-c2ccc(F)cc2C)c2ccc(=O)n(C3CCCCC3)c2n1
CCONc1nc(-c2ccc(F)cc2C)c2ccc(=O)n(-c3ccccc3F)c2n1
Cc1cc(F)ccc1-c1nc(NC[C@@H](C)O)nc2c1ccc(=O)n2-c1ccccc1C
Cc1cc(F)ccc1-c1nc(NCCNC(=O)CNC(=O)OC(C)(C)C)nc2c1ccc(=O)n2-c1c(F)cccc1F
CSc1nc(-c2ccccc2)c2ccc(=O)n(-c3ccccc3)c2n1
CCNc1nc(-c2ccc(F)cc2C)c2ccc(=O)n(-c3ccccc3C)c2n1
CSc1nc(-c2ccc(F)cc2C)c2c(n1)N(c1c(F)cccc1F)C(=O)CC2
Cc1cc(F)ccc1-c1nc(NC[C@@H](C)O)nc2c1ccc(=O)n2-c1c(F)cccc1F
CCC(CC)n1c(=O)ccc2c(-c3ccccc3Cl)nc(NCCN(CC)CC)nc21
Cc1cc(F)ccc1-c1nc(OCCNC(=O)OC(C)(C)C)nc2c1ccc(=O)n2-c1c(F)cccc1F
Cc1cc(F)ccc1-c1nc(N(C)CCO)nc2c1ccc(=O)n2-c1c(F)cccc1F
Cc1cc(F)ccc1-c1nc(NC[C@H](C)O)nc2c1ccc(=O)n2-c1ccccc1F
Cc1cc(F)ccc1-c1nc(NC(CO)CO)nc2c1ccc(=O)n2-c1ccccc1F
Cc1cc(F)ccc1-c1nc(NC(CO)CO)nc2c1ccc(=O)n2C1CC1
Cc1cc(F)ccc1-c1nc(NC(C)(CO)CO)nc2c1ccc(=O)n2-c1c(F)cccc1F
CSc1nc(-c2ccc(F)cc2C)c2ccc(=O)n(CC3CC3)c2n1
Cc1cc(F)ccc1-c1nc(Nc2c[nH]c(=O)[nH]c2=O)nc2c1ccc(=O)n2-c1c(F)cccc1F
CCN(CC)CCNc1nc(-c2ccc(F)cc2C)c2ccc(=O)n(-c3c(F)cccc3F)c2n1
O=c1ccc2c(-c3ccccc3F)nc(NC(CO)CO)nc2n1-c1c(F)cccc1F
CN1CCC(Nc2nc(-c3ccccc3Cl)c3ccc(=O)n(-c4ccccc4Cl)c3n2)CC1
Cc1cc(F)ccc1-c1nc(NCC(=O)NC2CC2)nc2c1ccc(=O)n2-c1c(F)cccc1F
Cc1cc(F)ccc1-c1nc(NCCC#N)nc2c1ccc(=O)n2-c1c(F)cccc1F
Cc1cc(F)ccc1-c1nc(OC(CO)CO)nc2c1ccc(=O)n2-c1c(F)cccc1F
Cc1cc(F)ccc1-c1nc(NCCO)nc2c1ccc(=O)n2-c1c(C)cccc1C
COC(=O)CNc1nc(-c2ccc(F)cc2C)c2ccc(=O)n(-c3c(F)cccc3F)c2n1
CNc1nc(-c2ccc(F)cc2C)c2ccc(=O)n(-c3c(F)cccc3F)c2n1
Cc1cc(F)ccc1-c1nc(N[C@H]2CCCC[C@@H]2O)nc2c1ccc(=O)n2-c1c(F)cccc1F
CCN(CC)CCNc1nc(-c2ccccc2)c2ccc(=O)n(-c3ccccc3)c2n1
Cc1cc(F)ccc1-c1nc(N[C@H]2CC[C@H](O)CC2)nc2c1ccc(=O)n2-c1ccccc1C
Cc1cc(F)ccc1-c1nc(NC2CCN(C)CC2)nc2c1ccc(=O)n2-c1c(F)cccc1F
Cc1cc(F)ccc1-c1nc(NC2CCOCC2)nc2c1ccc(=O)n2-c1ccccc1F
Cc1cc(F)ccc1-c1nc(NCCc2c[nH]cn2)nc2c1ccc(=O)n2-c1c(F)cccc1F
CCC(C)n1c(=O)ccc2c(-c3ccc(F)cc3C)nc(NC(CO)CO)nc21 (configuration not stated)
